According to ChEMBL document CHEMBL1153350, “Synthesis of actin-depolymerizing compounds” (Bioorg Med Chem Lett, 2009):

Key:
[1] = Inhibition of F-actin depolymerization
[2] = Cytotoxicity against human HeLaS3 cells; type: functional, cell-based; conditions: HeLa S3

Row | SMILES | IC50 [1] [µM] | IC50 [2] [µg/mL]
1 | CC(=O)O[C@@H]([C@@H](C)[C@@H](CC[C@H](C)[C@H](O)[C@H](C)[C@@H](O)CCO)OC(=O)[C@H](C)N(C)C)[C@H](C)/C=C/N(C)C=O | 7.9 | > 10
2 | C/C=C/[C@@H](OC(=O)[C@H](C)N(C)C)[C@H](C)[C@H](OC(C)=O)[C@H](C)/C=C/N(C)C=O | 210 | > 10
3 | CC(=O)O[C@@H]([C@@H](C)[C@@H](/C=C/CCc1ccccc1)OC(=O)[C@H](C)N(C)C)[C@H](C)/C=C/N(C)C=O | 47 | > 10
4 | CC(=O)O[C@@H]([C@@H](C)[C@@H](/C=C/c1ccccc1)OC(=O)[C@H](C)N(C)C)[C@H](C)/C=C/N(C)C=O | 85 | > 10
5 | CC(=O)O[C@@H]([C@@H](C)[C@@H](/C=C/CCCCc1ccccc1)OC(=O)[C@H](C)N(C)C)[C@H](C)/C=C/N(C)C=O | 21 | > 10
